Target: T1, Ephrin type-B receptor 2 (Homo sapiens, UniProt P29323)
T1 sequence (P29323 whole entry): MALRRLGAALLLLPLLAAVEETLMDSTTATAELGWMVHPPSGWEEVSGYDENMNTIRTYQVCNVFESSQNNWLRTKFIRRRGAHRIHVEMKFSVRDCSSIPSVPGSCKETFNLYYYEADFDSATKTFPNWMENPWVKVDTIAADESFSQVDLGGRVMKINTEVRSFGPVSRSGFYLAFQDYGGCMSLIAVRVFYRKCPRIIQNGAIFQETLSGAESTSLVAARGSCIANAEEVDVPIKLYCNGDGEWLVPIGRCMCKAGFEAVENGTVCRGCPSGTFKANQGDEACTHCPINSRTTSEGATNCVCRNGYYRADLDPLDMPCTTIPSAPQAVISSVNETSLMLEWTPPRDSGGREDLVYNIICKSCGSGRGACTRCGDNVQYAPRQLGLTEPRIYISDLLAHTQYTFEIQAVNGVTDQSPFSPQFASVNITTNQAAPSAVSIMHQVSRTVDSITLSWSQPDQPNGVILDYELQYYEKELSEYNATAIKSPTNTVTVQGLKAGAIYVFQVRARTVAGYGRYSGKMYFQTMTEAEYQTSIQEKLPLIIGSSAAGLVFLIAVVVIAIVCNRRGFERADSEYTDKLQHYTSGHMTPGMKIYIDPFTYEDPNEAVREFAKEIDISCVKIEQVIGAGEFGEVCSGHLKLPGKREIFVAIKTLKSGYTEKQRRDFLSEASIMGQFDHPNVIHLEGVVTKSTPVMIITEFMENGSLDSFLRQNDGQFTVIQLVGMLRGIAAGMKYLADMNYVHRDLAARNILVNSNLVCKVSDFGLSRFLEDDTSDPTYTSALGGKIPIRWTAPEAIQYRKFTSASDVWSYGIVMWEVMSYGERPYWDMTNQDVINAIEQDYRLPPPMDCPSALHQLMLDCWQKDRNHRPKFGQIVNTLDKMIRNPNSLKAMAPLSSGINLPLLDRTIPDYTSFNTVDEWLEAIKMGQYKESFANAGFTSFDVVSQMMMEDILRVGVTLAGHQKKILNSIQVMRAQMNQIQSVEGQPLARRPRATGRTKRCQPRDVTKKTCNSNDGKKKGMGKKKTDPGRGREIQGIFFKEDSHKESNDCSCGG
Assay: Inhibition of EPHB2 (unknown origin) assessed as residual activity incubated for 5 mins in presence of [gamma-33ATP] by scintillation counting based radiometry assay

IC50: 70.8 nM
Structure (SMILES): Cc1ccc(C(=O)Nc2ccc(CN3Cc4cn[nH]c4C3)c(Cl)c2)cc1C#Cc1cnc2cccnn12

Reference: ChEMBL document CHEMBL4602709 (ACS Med Chem Lett, 2020)
